Experimental data from ChEMBL document CHEMBL1641528, “Reverse type I inhibitor of Mycobacterium tuberculosis CYP125A1” (Bioorg Med Chem Lett, 2011).

Target: Steroid C26-monooxygenase (Mycobacterium tuberculosis, UniProt P9WPP1, C429L)
Assay: Binding affinity to Mycobacterium tuberculosis H37Rv CYP125A1 C429L mutant expressed in Escherichia coli by titration plot analysis

Compound: CC1CCC(C(=O)NC(Cc2c[nH]c3ccccc23)C(=O)Nc2ccncc2)CC1 (stereo unspecified)
- Kd: 1680 nM
